Measured values from patent publication US20210322508A1, “PEPTIDES AND COMPOSITIONS FOR TARGETED TREATMENT AND IMAGING” (SIGNABLOK, INC., priority 2018, published 2021).
Residues, ends and D or L forms follow the SMILES beside them.

Test system: intratumoral macrophages (F4/80)
Assay: Immunohistochemistry of intratumoral macrophages (F4/80) in PC xenografts
Format: in vivo, mouse
Conditions: PC xenografts (shown for BxPC-3)
Experimental: All staining and quantification procedures were performed by HistoTox Laboratories. Briefly, mice containing AsPC-1, BxPC-3, and Capan-1 tumors were humanely euthanized for necropsy at the end of the study. Excised tumors were fixed using 10% neutral buffered formalin for 1-2 days, processed for paraffin embedding, and sectioned at […]. Antigen retrieval for F4/80 was achieved using Proteinase K (Dako North America). Sections were blocked for peroxidase and alkaline phosphatase activity using Dual Endogenous Enzyme Block (Dako North America). Sections were then incubated with Protein Block (Dako North America) followed by primary antibody F4/80 (1:2000, AbD Serotec) diluted using 1% bovine serum albumin in Tris-buffered saline. […] Quantitative analysis of intratumoral F4/80 staining was determined using Visiopharm software.
Mice containing BxPC-3 tumors were humanely euthanized for necropsy at the end of the study. […] Quantitative analysis of intratumoral F4/80 staining was determined using Visiopharm software.
Immunohistochemistry. All staining and quantification procedures were performed by HistoTox Labs. […] Quantitative analysis of intratumoral F4/80 staining was determined using Visiopharm software.

## CC(C)C[C@H](NC(=O)[C@H](Cc1ccccc1)NC(=O)CN)C(=O)N[C@@H](CO)C(=O)N[C@@H](CCCCN)C(=O)N[C@@H](CO)C(=O)N[C@@H](CC(C)C)C(=O)N[C@H](C(=O)N[C@@H](Cc1ccccc1)C(=O)NCC(=O)N[C@@H](CCC(=O)O)C(=O)N[C@@H](CCC(=O)O)C(=O)N[C@@H](CC[S+](C)[O-])C(=O)N[C@@H](CCCNC(=N)N)C(=O)N[C@@H](CC(=O)O)C(=O)N[C@@H](CCCNC(=N)N)C(=O)N[C@@H](C)C(=O)N[C@@H](CCCNC(=N)N)C(=O)N[C@@H](C)C(=O)N[C@@H](Cc1c[nH]cn1)C(=O)N[C@H](C(=O)O)C(C)C)C(C)C (stereo partly shown) [G-HV21] (HELM PEPTIDE1{G.F.L.S.K.S.L.V.F.G.E.E.[CS(=O)CC[C@H](N[*:1])C(=O)[*:2]].R.D.R.A.R.A.H.V}$$$$V2.0)
  intratumoral macrophage content / infiltration (F4/80): reduces the macrophage infiltration into the tumor
